Drawing on the supplement of paper PMC3493320, this text covers IC50 for 63 compounds.

The structures appear in SMILES notation.

This assay relates to NCI-H295R. The assay is described as follows: IC50 (antiproliferative, ATP content). The conditions noted are these: 48 h. The procedure, abridged: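 Adrenocortical carcinoma cells were plated at 1500 per well in 1536-well plates in serum-free DMEM with ITS supplement, left overnight, then given library compounds by pin transfer at 8 final concentrations spanning 0.6 nM to 46 µM and held 48 h at 37 °C, 5% CO2. ATP was measured as CellTiter-Glo luminescence after 20 min at room temperature and scaled between vehicle and positive-control wells. A four-parameter logistic model was fitted to each series. The IC50 was taken from these fits, and compounds without a concentration response were recorded as above the top dose.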
The compound `O=C(NCC1CCCCN1)c1cc(OCC(F)(F)F)ccc1OCC(F)(F)F` (stereo not drawn) displayed an IC50 above 46 µM. `CCS(=O)(=O)CCn1c([N+](=O)[O-])cnc1C` returned an IC50 above 46 µM. With `O=[C@@](OC)[C@H]([C@H]3OC)[C@@]2([H])C[C@](N4C[C@]([H])2C[C@H]3OC(C=CC6=CC(OC)=C(OC)C(OC)=C6)=O)([H])C1=C(CC4)C(C=C5)=C(C=C5OC)N1`, the IC50 was above 46 µM. Compound `Cc1ncc([N+](=O)[O-])n1CC(O)CCl` (stereo not drawn) came in with a concentration for half-maximal inhibition (IC50) above 46 µM. Regarding `F[C@]1([C@](C[C@@H]4F)([H])[C@@]3([H])[C@]([C@@]([C@H](C)C3)(O)[C@@](CO)=O)(C)C[C@@H]1O)[C@](C=C2Cl)(C)C4=CC2=O.O`, the IC50 is above 46 µM. With `N=C(N)NN=Cc1c(Cl)cccc1Cl`, the IC50 was above 46 µM.

For the compound `CN(Cc1ccccc1)Cc1ccccc1`, the IC50 was above 46 µM.

`CCCCCCC(=O)CCCCCC/C=C/C[C@@H](O)[C@H](O)[C@@](N)(CO)C(=O)O` yielded an IC50 above 46 µM.

Compound `CN1CCOC(c2ccccc2)c2ccccc2C1.Cl` (stereo not drawn) yielded an IC50 above 46 µM. With `CCCCNc1ccc(C(=O)OCCN(C)C)cc1.Cl`, the IC50 is above 46 µM.

With `CC1(O)CCC(C(C)(C)O)CC1` (stereo not drawn), the IC50 is above 46 µM.

`O=c1ccc2cc(O[C@@H]3O[C@H](CO)[C@@H](O)[C@H](O)[C@H]3O)c(O)cc2o1` yielded an IC50 above 46 µM. Consider `C=C1c2cccc(O)c2C(=O)C2=C(O)[C@]3(O)C(=O)C(C(N)=O)=C(O)[C@@H](N(C)C)[C@@H]3[C@@H](O)[C@H]12.Cl`, for which the IC50 is above 46 µM. In turn, `O=C([C@H]3N[C@H]([C@](OCC)=O)CCC2=CC=CC=C2)N(CC(O)=O)C[C@H](SC3)[C@@]1=CC=CS1.Cl` yielded an IC50 above 46 µM. The result for `Clc1ccccc1Cl` reads above 46 µM; that for `C[C@@H](O)[C@H]1C(=O)N2C(C(=O)O)=C(S[C@@H]3CN[C@H](C(=O)N(C)C)C3)[C@H](C)[C@H]12`, above 46 µM; that for `N21/C(=C(/SCCNC=N)C[C@@H]1[C@H](C2=O)[C@H](O)C)C(=O)O`, above 46 µM. Under `O=C([O-])CN(CCN(CC(=O)[O-])CC(=O)[O-])CC(=O)[O-].[Ca+2].[Na+].[Na+]` stands above 46 µM.

`CO[C@H]1/C=C/O[C@@]2(C)Oc3c(C)c(O)c4c(O)c(cc([O-])c4c3C2=O)NC(=O)/C(C)=C\C=C\[C@H](C)[C@H](O)[C@@H](C)[C@@H](O)[C@@H](C)[C@H](OC(C)=O)[C@@H]1C.[Na+]` had an IC50 above 46 µM. Under `CC1(C)S[C@@H]2[C@H](NC(=O)C(C(=O)[O-])c3ccsc3)C(=O)N2[C@H]1C(=O)[O-].[Na+].[Na+]` (stereo partly drawn) stands above 46 µM; under `CCC1(c2cccc(O)c2)CCCCN(C)C1.Cl` (stereo not drawn), above 46 µM. As for `COc1cc(C(=O)N2CCOCC2)cc(OC)c1OC`, the IC50 was above 46 µM. The compound `CCN(CC)CCC(=O)N1c2ccccc2Sc2ccc(C(F)(F)F)cc21` yielded an IC50 above 46 µM. The result for `C#CCN(C)CCCOc1ccc(Cl)cc1Cl.Cl` reads above 46 µM; that for `COc1ccc(C(=O)CCC(=O)O)c2ccccc12`, above 46 µM; that for `CC1C(=O)CC2C3(C)CCC2(C(C)C(=O)O)C(=O)C13` (stereo not drawn), above 46 µM. The result for `N=C(N)N/N=C1/C=C/C(C=C1)=N\NC(N)=S` reads above 46 µM. For `COc1ccc(C(=O)c2ccccc2O)c(O)c1`, the IC50 was above 46 µM. As to `COc1ccc(/C=C/C(=O)Nc2ccccc2C(=O)O)cc1OC`, the IC50 was above 46 µM.

Consider `CC12CCC(C1)C(C)(C)C2=O` (stereo not drawn), for which the IC50 was above 46 µM. Under `COc1cc2ncnc(Nc3ccc(F)c(Cl)c3)c2cc1OCCCN1CCOCC1` stands above 46 µM.

Compound `CCOc1ccc(C(=O)OCCN(CC)CC)cc1` showed an IC50 above 46 µM. As to `CC(=O)SC[C@H](Cc1ccccc1)C(=O)NCC(=O)OCc1ccccc1`, the IC50 was above 46 µM. Under `Cc1nc(Nc2ncc(C(=O)Nc3c(C)cccc3Cl)s2)cc(N2CCN(CCO)CC2)n1` stands above 46 µM; under `OCC=Cc1ccccc1`, above 46 µM; under `C[C@]12CC[C@H]3[C@@H](CCC4=C(O)C(=O)CC[C@@H]43)[C@@H]1CC[C@@H]2OC(=O)CCC1CCCC1`, above 46 µM. `Cl.NC1C[C@H]1c1ccccc1` (stereo partly drawn): the 50% inhibitory concentration (IC50) was above 46 µM.

On to `O=c1ccc2ccccc2o1`, for which the IC50 is above 46 µM. In turn, `CN1CCN(c2cc3c(nn2)Oc2ccccc2N3C)CC1` registered an IC50 above 46 µM.

For `O=[C@](CO)[C@@H]2[C@](CC1)(C)[C@](CC2)([H])[C@@](CC4)([H])[C@@]1([H])[C@](CC3)(C)C4=CC3=O`, the IC50 is above 46 µM. Turning to `CCOCCn1c(N2CCCN(C)CC2)nc2ccccc21.O=C(O)/C=C/C(=O)O.O=C(O)/C=C/C(=O)O`, the IC50 was above 46 µM. `O=C(OCc1ccccc1)c1ccc(O)cc1`: the IC50 is above 46 µM. In turn, `O=[C@@](OCC)[C@@H](N[C@@H](C)C(N2C(N(C)C[C@H]2[C@](O)=O)=O)=O)CCC1=CC=CC=C1.Cl` yielded an IC50 above 46 µM. Compound `CS(=O)(=O)OCC(O)C(O)COS(C)(=O)=O` (stereo not drawn) registered an IC50 above 46 µM.

On to `CO[C@H]1C=CO[C@@]2(C)Oc3c(C)c(O)c4c(c3C2=O)C2=NC3(CCN(CC(C)C)CC3)NC2=C(NC(=O)/C(C)=C\C=C\[C@H](C)[C@H](O)[C@@H](C)[C@@H](O)[C@@H](C)[C@H](OC(C)=O)[C@@H]1C)C4=O`, for which the IC50 was above 46 µM.

In turn, `C=CCn1c(=O)n([C@@H]2O[C@H](CO)[C@@H](O)[C@H]2O)c2nc(N)[nH]c(=O)c21` registered an IC50 above 46 µM. Turning to `COc1cc(C(=O)NCc2ccc(OCCN(C)C)cc2)cc(OC)c1OC.Cl`, the IC50 is above 46 µM. Consider `OC(C#CCN1CCCC1)(c1ccccc1)c1ccccc1`, for which the IC50 was above 46 µM.

As to `CN(C)CCOC(c1ccc(Cl)cc1)c1ccccn1.O=C(O)/C=C\C(=O)O` (stereo not drawn), the IC50 was above 46 µM. `OC(c1ccccc1)(c1ccccc1)C1CCNCC1` had an IC50 above 46 µM. On to `Cn1c(=O)c2c(ncn2CC(O)CO)n(C)c1=O` (stereo not drawn), for which the IC50 is above 46 µM. Take `Nc1ccncc1`: the IC50 was above 46 µM. `Cc1ccccc1-n1c(CF)nc2ccc(N)cc2c1=O` returned an IC50 above 46 µM. As to `O=C(CCCN1CCC(O)(c2ccc(Br)cc2)CC1)c1ccc(F)cc1`, the IC50 was above 46 µM. Compound `Cc1ncc(COP(=O)(O)O)c(C=O)c1O.O` gave an IC50 above 46 µM. Take `[H][C@]13[C@](O3)([H])[C@@H]2CC(OC(C(C4=CC=CS4)(C5=CC=CS5)O)=O)C[C@H]1[N@@+](C)2C.[Br-]` (stereo partly drawn): the half-maximal inhibitory concentration (IC50) is above 46 µM. The compound `CN1CCC(Nc2ncc3ncnc(Nc4ccc(F)c(Cl)c4)c3n2)CC1.Cl.Cl` came in with an IC50 above 46 µM.

In the case of `C1CNCCN1.C[C@H](CCC(=O)O)[C@H]1CC[C@H]2[C@@H]3[C@H](O)C[C@@H]4C[C@H](O)CC[C@]4(C)[C@H]3C[C@H](O)[C@]12C`, the 50% inhibitory concentration (IC50) is above 46 µM. `O=c1cc[nH]c(=S)[nH]1` came in with an IC50 above 46 µM. With `Cc1nc2ccccn2c(=O)c1CCN1CCC(C(=O)c2ccc(F)cc2)CC1`, the IC50 was above 46 µM. `CCN1CCC[C@H]1CNC(=O)c1c(OC)ccc(Br)c1OC`: the IC50 was above 46 µM. On to `O=Cc1ccccc1C=O`, for which the IC50 was above 46 µM. `Cc1cc(CC(=O)O)c(C)n1-c1ccc(Cl)cc1` yielded an IC50 above 46 µM.
